Source: patent US20160220738A1, “PROGESTERONE-CONTAINING COMPOSITIONS AND DEVICES” (priority 2007, published 2016)
“Also recorded” adds a separate entry of the source.

Columns and labels:
[1] = test system: platelet suspensions or whole blood; conditions: in vitro; cited from earlier work
ECs = conditions: cited from earlier work
vascular SMCs = conditions: cited from earlier work
[2] = test system: human aortic smooth muscle cells; assay: Human aortic smooth muscle cell proliferation (Example 10); format: cell-based; conditions: HASMC, progesterone 10 μg/ml; for smooth muscle cell proliferation (in words): up to 8 days
Procedure: For cell cultures grown longer than 3 days, culture medium was changed twice weekly, according to standard protocols in the art, and included antibiotics and other standard additives as appropriate.
(§1) Cell cultures were maintained at 37° C. in an atmosphere containing 5% carbon dioxide. Appropriate precautions were taken to prevent accelerated breakdown, including protection of the cell cultures from light.
At each timepoint, triplicate samples were analyzed via growth measurements. The rate of cell proliferation was assayed by counting the number of cells across the 8 day growth period. Absolute cell density was measured with a Coulter Counter. Cell viability was determined by trypan blue staining.

[3] = test system: human coronary smooth muscle cell (HCSMC); assay: Human coronary smooth muscle cell proliferation (Example 14); format: cell-based; conditions: for difference in growth of progesterone treated SMC versus control: 30 μg/ml; for Average Number of Cells/dish / SMC proliferation (in words): HCSMC, progesterone 30 μg/ml; for SMC proliferation (in words): days 1, 3, 5
Procedure: In addition, cells will be grown for 5 and 7 days. For cell cultures grown longer than 3 days, culture medium is changed twice weekly, according to standard protocols in the art, and includes antibiotics and other standard additives as appropriate.
as §1
Cultured human coronary endothelial and smooth muscle cells were obtained from commercial services. […] Dilutions were prepared using ethanol such that the total quantity of ethanolic drug volume added to any experimental culture was 10 μL. For proliferation and apoptosis studies, EC or SMC was seeded in multiple culture wells at a density of 5,000 cells/cm^2. […] Cell counts were conducted at days 1, 3, and 5 and will be conducted at day 7, using a Coulter counter. From these counts, the influence of the drug concentration on cell growth rate was calculated.
Sampling and analysis of SMC is performed as follows. At each time point, triplicate samples are analyzed for growth measurements. The rate of cell proliferation is assayed by counting the number of cells across the 8 day growth period. Absolute cell density is measured with a Coulter Counter. Cell viability is determined by a live-dead cell apoptosis assay (Molecular Probes, Inc.).

[4] = test system: human coronary endothelial cells (HCEC); assay: Human coronary endothelial cell growth (Example 14); format: cell-based
Procedure: In addition, cells will be grown for 5 and 7 days. For cell cultures grown longer than 3 days, culture medium is changed twice weekly, according to standard protocols in the art, and includes antibiotics and other standard additives as appropriate. […] Addition of the progesterone-treated or control (untreated) medium to the cells was counted as day 0. […] Cell cultures were maintained at 37° C. in an atmosphere containing 5% carbon dioxide. Appropriate precautions were taken to prevent accelerated breakdown, including protection of the cell cultures from light. Cultured human coronary endothelial and smooth muscle cells were obtained from commercial services. […] Dilutions were prepared using ethanol such that the total quantity of ethanolic drug volume added to any experimental culture was 10 μL. For proliferation and apoptosis studies, EC or SMC was seeded in multiple culture wells at a density of 5,000 cells/cm^2. […] Cell counts were conducted at days 1, 3, and 5 and will be conducted at day 7, using a Coulter counter. From these counts, the influence of the drug concentration on cell growth rate was calculated. Sampling and analysis of endothelial cells is performed as follows. At each time point, triplicate samples are analyzed for growth measurements. The rate of cell proliferation is assayed by counting the number of cells across the 8 day growth period. Absolute cell density is measured with a Coulter Counter. Cell viability is determined by a live-dead cell apoptosis assay (Molecular Probes, Inc.).

[5] = test system: human infragenicular VSMCs; assay: Human infragenicular VSMC proliferation under high glucose and insulin (Example 12); format: cell-based; conditions: progesterone 10 ng/mL, glucose 100/200 mg/dL, insulin 0/100 ng/mL, day 6
Procedure: Methods are according to 2002 J Vasc Surg 36, 833-838, except as otherwise noted.
Human infragenicular VSMCs are isolated from the tibial arteries of male patients with diabetes undergoing lower extremity amputation. Immunocytochemical studies with confocal microscopy are performed for progesterone receptor identification in these VSMCs. Cells are grown to subconfluence, followed by exposure to deprived media with various glucose (100 and 200 mg/dL) and insulin (no insulin and 100 ng/mL) concentrations. […] Cell count and methyl-3H-thymidine incorporation are used to determine cellular proliferation. Cell count with hemocytometry is performed on day 6. DNA synthesis as reflected through methyl-3H-thymidine incorporation is measured at 24 hours.

V189 (VEGF189) = conditions: perivascular decidual endometrial cells, mid-late secretory phase and early gestation; cited from earlier work
[6] = test system: primary astrocyte cultures; assay: Glucose transport inhibition in astrocytes (Example 13); format: cell-based, rat; conditions: 24 hours exposure
[7] = test system: human aortic endothelial cells (HAEC) or U937 monocytic cells; conditions: d-alpha-tocopherol 20, 40, 60 micromol/l for 20 h, IL-1beta stimulated; cited from earlier work
HAEC = conditions: cited from earlier work

**Q.** With `CCCCCC/C=C/C=C\CCCCCCCC(=O)O` [C18:2c9t11, rumenic acid] as the molecule, how does the platelet aggregation [1] read?
**A.** inhibit platelet aggregation

**Q.** What about the “EC production of PAF” value (ECs) of the same molecule?
**A.** inhibit EC production of PAF

**Q.** And the “secretion of eicosanoids (PGI2 and PGE2)” value (vascular SMCs)?
**A.** attenuate secretion of eicosanoids

**Q.** Which platelet aggregation [1] does the source give for `CCCCCC/C=C/C=C/CCCCCCCC(=O)O` [C18:2t9t11] here?
**A.** inhibit platelet aggregation

**Q.** For `CCCCC/C=C\C=C\CCCCCCCCC(=O)O` [C18:2t10c12], which platelet aggregation [1] is on record?
**A.** inhibit platelet aggregation

**Q.** What about the “EC production of PAF” value (ECs) of the same molecule?
**A.** inhibit EC production of PAF

**Q.** What about the “secretion of eicosanoids (PGI2 and PGE2)” value (vascular SMCs) of the same molecule?
**A.** attenuate secretion of eicosanoids

**Q.** Which “Average number of cells per dish” value ([2]; day 1) does the source give for `CC(=O)[C@H]1CC[C@H]2[C@@H]3CCC4=CC(=O)CC[C@]4(C)[C@H]3CC[C@]12C` [Progesterone, pregn-4-ene-3,20-dione] here?
**A.** 7902 cells per dish

**Q.** And the “Average number of cells per dish” value ([2]; day 3)?
**A.** 14871 cells per dish

**Q.** And the “Average number of cells per dish” value ([2]; day 6)?
**A.** 17618 cells per dish

**Q.** And the “Average number of cells per dish” value ([2]; day 8)?
**A.** 20018 cells per dish

**Q.** And the “smooth muscle cell proliferation (in words)” value [2]?
**A.** decrease SMC's compared to control in a dose response fashion

**Q.** And the “smooth muscle cell proliferation (in words)” value ([2]; listed as progesterone)?
**A.** inhibited smooth muscle cell proliferation

**Q.** What about the “difference in growth of progesterone treated SMC versus control” value ([3]; day 1, inhibition) of the same molecule?
**A.** 12.1%

**Q.** And the “difference in growth of progesterone treated SMC versus control” value ([3]; day 3, inhibition)?
**A.** 20.8%

**Q.** What about the “difference in growth of progesterone treated SMC versus control” value ([3]; day 5, inhibition) of the same molecule?
**A.** 53.7%

**Q.** And the “Average Number of Cells/dish” value ([3]; day 1)?
**A.** 7092 Cells/dish

**Q.** And the “Average Number of Cells/dish” value ([3]; day 3)?
**A.** 9492 Cells/dish

**Q.** What about the “Average Number of Cells/dish” value ([3]; day 5) of the same molecule?
**A.** 10844 Cells/dish

**Q.** And the “SMC proliferation (in words)” value [3]?
**A.** decrease SMC's compared to control in a dose response fashion

**Q.** And the “SMC proliferation (in words)” value ([3]; listed as progesterone)?
**A.** showed inhibition of SMC on the first day of treatment; also recorded: inhibits SMC proliferation

**Q.** And the “increase in growth of the progesterone treated EC versus control” value ([4]; 30 μg/ml, day 1)?
**A.** 5.3%

**Q.** And the “difference in growth of progesterone treated EC versus control” value ([4]; 30 μg/ml, day 3, increase)?
**A.** 27.5%

**Q.** And the “difference in growth of progesterone treated EC versus control” value ([4]; 30 μg/ml, day 5, increase)?
**A.** 29.3%

**Q.** And the “Average Number of Cells/dish” value ([4]; HCEC, progesterone 30 μg/ml, day 1)?
**A.** 6207 Cells/dish

**Q.** And the “Average Number of Cells/dish” value ([4]; HCEC, progesterone 30 μg/ml, day 3)?
**A.** 7227 Cells/dish

**Q.** What about the “Average Number of Cells/dish” value ([4]; HCEC, progesterone 30 μg/ml, day 5) of the same molecule?
**A.** 8658 Cells/dish

**Q.** And the “endothelial cell growth (in words)” value ([4]; HCEC, progesterone 30 μg/ml, days 1, 3, 5)?
**A.** promoted growth of the EC both on the first and third days; also recorded: enhanced endothelial cell growth; also recorded: increases endothelial cells

**Q.** And the “cellular proliferation by cell count” value [5]?
**A.** significantly inhibited cellular proliferation

**Q.** What about the V189 expression (V189 (VEGF189)) of the same molecule?
**A.** selectively increases

**Q.** Which “concentration inhibiting glucose transport” value [6] does the source give for `C[C@]12CCC(=O)C=C1CC[C@@H]1[C@@H]2[C@@H](O)C[C@@]2(C)[C@H]1CC[C@]2(O)C(=O)CO` [cortisol] here?
**A.** 1 µM

**Q.** Which “adhesion of HAEC and U937 monocytic cells” value [7] does the source give for `Cc1c(C)c2c(c(C)c1O)CC[C@@](C)(CCC[C@H](C)CCC[C@H](C)CCCC(C)C)O2` [vitamin E, d-alpha-tocopherol] here?
**A.** inhibited their adhesion

**Q.** What about the “IL-1beta-induced productions of MCP-1 and IL-8” value (HAEC; 20, 40, 60 micromol/l) of the same molecule?
**A.** dose-dependently suppressed

**Q.** And the “IL-1beta-stimulated expression of ICAM-1, VCAM-1 and E-selectin” value (HAEC; 20, 40, 60 micromol/l)?
**A.** suppressed

**Q.** What about the IL-8 production (HAEC; 60 micromol/l) of the same molecule?
**A.** reduced IL-8 production significantly

**Q.** And the “IL-1beta-induced production of IL-6” value (HAEC; at the doses used)?
**A.** dose-dependently inhibited

**Q.** What about the “spontaneous production of IL-6” value (HAEC; at the doses used) of the same molecule?
**A.** did not significantly change

**Q.** What about the “spontaneous production of MCP-1” value (HAEC; up to 60 micromol/l) of the same molecule?
**A.** not effective
